The record followed here is patent US12552776B2, “Crystalline forms” (priority 2021, dated 2026).

The nature of series [1]: Hygroscopicity study by dynamic vapor sorption (DVS) analysis. The format is physicochemical. Conditions: for weight gain %: 25° C., DVS sorption; for water absorbed (water adsorption): 90% RH at 25° C. The procedure:
Hygroscopicity study is performed using Surface Measurement Systems DVS-1. The sample is placed on a microbalance in the instrument and the weight change during the sorption at 25° C. is monitored. One of the programs consists of a sorption scan from 0 to 90% relative humidity (RH) at 5% RH increments and the sample is allowed to equilibrate for 360 minutes or until equilibration had been attained at each step.
The hygroscopicity study is performed by using dynamic vapor sorption (DVS) analysis.

Series [2] is described as follows: Solubility study in buffers and water for injection. Particulars: aqueous buffer, thermodynamic from solid, buffers pH 1.06, 2.98, 4.44, 7.34, 7.40, 9.22 and WFI, 5 mg in 20 microL. The format is physicochemical. The method, then:
Each 5 mg of HCl-salt Crystalline Form A was weighed in a vial and each 20 microL of buffers (pH 1.06, 2.98, 4.44, 7.34, 7.40 and 9.22) and WFI (water for injection) was added to the vial. After the mixture was shaken with a vortex mixer and stood still for 15 min, no insoluble matter was observed. The mixture kept a clear solution after still standing for 2 days.

Series [3] is classed as physicochemical. Particulars: for other arising degradation products (not existing at Day 0) / remaining: 40° C./75% RH, storage period of 50 days, HPLC. The method, then: (§1) • HPLC data are obtained by Waters Alliance 2695 HPLC system with 2996 PDA detector using the following conditions; • Column: XBridge Phenyl (3.5 micrometers, 4.6×150 mm), • Eluent: acetonitrile/0.3% perchloric acid=35:65, • Detection: UV at 215 nm, • Flow rate: 1 mL/min, and • Column temperature: 40° C.
Solid-state stability study is performed using Nagano Science Constant temperature/humidity control chamber LH-20-11M, LH-21-11M, LTL-200D3CJ-14 or LTX-01. The samples are placed in the chamber and exposed under 25° C./60% RH, 40° C./75% RH and/or irradiated with the light such as D65 lamp or Xenon lamp. The crystalline form, thermal behavior, purity and/or weight change of the resultant sample after the exposure or irradiation are evaluated by XRPD, TG/DTA or DSC, HPLC, microbalance, respectively.

Series [4] in a line: Photostability study, D65 lamp 4000 lux, 25° C./60% RH, HPLC. The format is physicochemical. The procedure: as §1
Photostability samples are set in Nagano Science LTL-200D3CJ-14. The samples are placed in the chamber and stored under 25° C./60% RH condition and irradiated with a D65 lamp on light condition of 4000 lux. HCl-salt Crystalline Form A, HCl-salt Amorphous, and Free-base Amorphous samples store for 13, 26 and 50 days under the condition are analyzed by HPLC, respectively.
FIGS. 7, 8 and 9 show the data of degradation products except for the existing products at initial samples (Day 0), i.e., definitely arising peaks on the HPLC chart after storing initial samples under light exposure. The relative retention time (RRT) represents a ratio of retention time (RT) of a target peak to RT of the main peak. In case of the appearance of the peak at same RRT at least two consecutive storing periods of 13, 26 and 50 days, the arising peak is recognized as a degradation product.

Series [5] is described as follows: Chiral analysis by HPLC. Format: physicochemical. Conditions: CHIRALPAK IC HPLC. The method, then: • High Performance Liquid Chromatography (HPLC) measurement • HPLC data are obtained by Waters Alliance 2695 HPLC system with 2996 PDA detector using the following conditions; • Column: DAICEL CHIRALPAK IC (5 micrometers, 4.6×250 mm), • Eluent: n-hexane/ethanol/diethylamine=87/13/0.1 (v/v/v), • Detection: UV at 254 nm, • Flow rate: 1 mL/min, and • Column temperature: 40° C. • Data processing is performed with Empower 3 software supplied from Waters Corporation

Series [6] has as its target T1, motilin receptor (Homo sapiens, UniProt O43193).
T1 construct: 'the cell expressing motilin receptor and reporter gene'
Briefly: Motilin receptor agonistic activity, reporter gene assay. Format: cell-based. Particulars: cell expressing motilin receptor and reporter gene; compared with initial sample. An excerpt:
Motilin receptor agonistic activity is identified by reporter gene assay using the cell expressing motilin receptor and reporter gene. The dose-response curve of assay sample is plotted and calculated to determine an agonistic activity (EC50).
For orientation: In a reporter assay the amount or activity of a reporter protein is the signal.

Where a name gives a salt, the structure may show the parent alone. A value given as a limit tells only on which side of the number the result lay.

T1 sequence (O43193 whole entry, species assumed): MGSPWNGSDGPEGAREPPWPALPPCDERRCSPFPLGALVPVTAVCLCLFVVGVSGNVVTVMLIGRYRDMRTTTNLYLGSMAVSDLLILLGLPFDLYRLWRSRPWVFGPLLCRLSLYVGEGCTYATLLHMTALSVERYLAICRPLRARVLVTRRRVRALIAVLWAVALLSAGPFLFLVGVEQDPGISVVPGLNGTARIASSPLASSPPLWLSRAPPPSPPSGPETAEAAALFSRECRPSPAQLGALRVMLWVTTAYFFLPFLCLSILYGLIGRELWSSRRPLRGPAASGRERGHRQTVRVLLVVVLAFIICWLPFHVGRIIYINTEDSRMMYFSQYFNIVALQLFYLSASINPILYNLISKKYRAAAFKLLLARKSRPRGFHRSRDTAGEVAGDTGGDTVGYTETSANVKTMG

With `CC1(C)C(=O)N(C2CCN(C(=O)[C@H](CCc3ccccc3)NC(=O)[C@@H]3CCCNC3)CC2)c2ccccc21` [HCl-salt Crystalline Form A, (R)—N—((S)-1-(4-(3,3-dimethyl-2-oxoindolin-1-yl)piperidin-1-yl)-1-oxo-4-phenylbutan-2-yl)piperidine-3-carboxamide hydrochloride Crystalline Form A], the weight gain % in series [1] (50% RH) was determined as 0.0%; in series [1] (60% RH) it was 0.2%; in series [1] (70% RH), 0.4%; in series [1] (80% RH) it was 1.6%; in series [1] (90% RH), 3.4%. Besides, the “water absorbed (water adsorption)” value in series [1] is “less than or equal to 3.4 wt %”. For the same compound, the solubility (as a rule, how much of the substance goes into solution per volume) at 15 min in series [2] is greater than 250 mg/mL. In addition, the “other arising degradation products (not existing at Day 0)” value in series [3] was “no other arising degradation products”. Moreover, the “changes in appearance, XRPD, IR (KBr), m.p. (DSC onset) and potency” value in series [3] (during the storage period) was “no significant changes”. The “arising degradation products due to irradiating light” value in series [4] (storing periods of 13, 26 and 50 days) is reported as “no arising degradation products”. Besides, in series [5], the “stability in chiral analysis” value was “preferable stability”. Further, in series [6], the “agonistic activity (EC50)” value is “high potency consistent with initial sample”.

In the case of `CC1(C)C(=O)N(C2CCN(C(=O)[C@H](CCc3ccccc3)NC(=O)[C@@H]3CCCNC3)CC2)c2ccccc21.Cl` [HCl-salt Crystalline Form B, (R)—N—((S)-1-(4-(3,3-dimethyl-2-oxoindolin-1-yl)piperidin-1-yl)-1-oxo-4-phenylbutan-2-yl)piperidine-3-carboxamide hydrochloride Crystalline Form B], the weight gain % in series [1] (50% RH) stood at 0.0%; in series [1] (60% RH), 0.0%; in series [1] (70% RH), 0.0%; in series [1] (80% RH), 4.9%; in series [1] (90% RH), 8.6%. The “water absorbed (water adsorption)” value in series [1] is no more than 8.6 wt %. The “stability in chiral analysis” value in series [5] is given as “preferable stability”.

Turning to `CC1(C)C(=O)N(C2CCN(C(=O)[C@H](CCc3ccccc3)NC(=O)[C@@H]3CCCNC3)CC2)c2ccccc21` [Free-base Amorphous, (R)—N—((S)-1-(4-(3,3-dimethyl-2-oxoindolin-1-yl)piperidin-1-yl)-1-oxo-4-phenylbutan-2-yl)piperidine-3-carboxamide], the weight gain % in series [1] (50% RH) is 5.2%; in series [1] (60% RH) it was 7.1%; in series [1] (70% RH), 9.5%; in series [1] (80% RH) it was 11.7%; in series [1] (90% RH) it was 17.9%. For the same compound, the “water absorbed (water adsorption)” value in series [1] is 17.9 wt %. For the same compound, the “other arising degradation products (not existing at Day 0)” value in series [3] is listed as “four”. Moreover, the fraction remaining (commonly what is left of the initial amount, in per cent) in series [3] is recorded as 97.2%. For the same compound, the “arising degradation products (peaks) due to irradiating light” value in series [4] (13 days) was determined as 2 peaks; in series [4] (26 days) it was 4 peaks; in series [4] (50 days), 4 peaks.

For `CC1(C)C(=O)N(C2CCN(C(=O)[C@H](CCc3ccccc3)NC(=O)[C@@H]3CCCNC3)CC2)c2ccccc21.Cl` [HCl-salt Amorphous, (R)—N—((S)-1-(4-(3,3-dimethyl-2-oxoindolin-1-yl)piperidin-1-yl)-1-oxo-4-phenylbutan-2-yl)piperidine-3-carboxamide amorphous solid of hydrochloride], the weight gain % in series [1] (50% RH, hydrochloride) was found to be 5.2%; in series [1] (60% RH, hydrochloride) it was 7.6%; in series [1] (70% RH, hydrochloride) it was 9.4%; in series [1] (80% RH, hydrochloride), 13.3%; in series [1] (90% RH, hydrochloride), 20.5%. The “water absorbed (water adsorption)” value in series [1] (hydrochloride) came to 20.5 wt %. The “other arising degradation products (not existing at Day 0)” value in series [3] is listed as “one”. The same compound returned a fraction remaining in series [3] of 97.0%. The “arising degradation products (peaks) due to irradiating light” value in series [4] (13 days) amounted to 2 peaks; in series [4] (26 days), 5 peaks; in series [4] (50 days), 5 peaks.

Regarding `CC1(C)C(=O)N(C2CCN(C(=O)[C@H](CCc3ccccc3)NC(=O)[C@@H]3CCCNC3)CC2)c2ccccc21.CS(=O)(=O)O` [mesylate salt crystalline, (R)—N—((S)-1-(4-(3,3-dimethyl-2-oxoindolin-1-yl)piperidin-1-yl)-1-oxo-4-phenylbutan-2-yl)piperidine-3-carboxamide methanesulfonic acid salt (mesylate salt)], the water adsorption in series [1] (60% RH) is listed as 3.7 wt %. Also, the “water absorbed (water adsorption)” value in series [1] came to 16.9 wt %.

Turning to `CC1(C)C(=O)N(C2CCN(C(=O)[C@H](CCc3ccccc3)NC(=O)[C@@H]3CCCNC3)CC2)c2ccccc21.O=C(O)CNC(=O)c1ccccc1` [hippurate salt crystalline, (R)—N—((S)-1-(4-(3,3-dimethyl-2-oxoindolin-1-yl)piperidin-1-yl)-1-oxo-4-phenylbutan-2-yl)piperidine-3-carboxamide hippuric acid salt (hippurate salt)], in series [1] (90% RH), the “observation in hygroscopicity study” value was “partial deliquescence is observed”. Moreover, the “water absorbed (water adsorption)” value in series [1] is 16.0 wt %.
